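These data come from cells grown in 96-well plates and exposed to compound for 48 hours at five concentrations. The concentration for 50% growth inhibition is given as GI50.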 Activity calls are given as the source filed them. Cut-off read from the data, not from the text of the source: active = GI50 up to about 1.1 µM and inactive = higher.
Tests used:
Assay in all cases: NCI tumour cell line growth inhibition, 48 h
SK-OV-3 = tested on: SK-OV-3
HOP-62 = tested on: HOP-62
UACC-62 = tested on: UACC-62
K562 = tested on: K562
SNB-75 = tested on: SNB-75
RXF 393 = tested on: RXF 393
SN12C = tested on: SN12C
HCC 2998 = tested on: HCC 2998
CCRF-CEM = tested on: CCRF-CEM
NCI-H460 = tested on: NCI-H460
RPMI-8226 = tested on: RPMI-8226
UO-31 = tested on: UO-31
NCI-H226 = tested on: NCI-H226
LOX IMVI = tested on: LOX IMVI
NCI-H23 = tested on: NCI-H23
Hs-578T = tested on: Hs-578T
BT-549 = tested on: BT-549
PC-3 = tested on: PC-3
MDA-MB-231 = tested on: MDA-MB-231
T47D = tested on: T47D

Compound | GI50 (SK-OV-3) | GI50 (HOP-62) | GI50 (UACC-62) | GI50 (K562) | GI50 (SNB-75) | GI50 (RXF 393) | GI50 (SN12C) | GI50 (HCC 2998) | GI50 (CCRF-CEM) | GI50 (NCI-H460) | GI50 (RPMI-8226) | GI50 (UO-31) | GI50 (NCI-H226) | GI50 (LOX IMVI) | GI50 (NCI-H23) | GI50 (Hs-578T) | GI50 (BT-549) | GI50 (PC-3) | GI50 (MDA-MB-231) | GI50 (T47D)
N#Cc1c2c(c(N=P(c3ccccc3)(c3ccccc3)c3ccccc3)n3c1nc1ccccc13)CCCC2 | 40.9 µM (inactive) | 19 µM (inactive) | 12.1 µM (inactive) | 4.76 µM (inactive) | 24.5 µM (inactive) | 46.2 µM (inactive) | 13.1 µM (inactive) | 26.3 µM (inactive) | 16.7 µM (inactive) | 13.3 µM (inactive) | 14.8 µM (inactive) | 12.4 µM (inactive) | 3.68 µM (inactive) | 16.7 µM (inactive) |  |  |  |  |  | 
Cc1ccc(S(=O)(=O)N/N=C/c2oc(-c3cccc([N+](=O)[O-])c3)c(-c3cccc([N+](=O)[O-])c3)c2[N+](=O)[O-])cc1 | 23.4 µM (inactive) |  | 17.8 µM (inactive) | 24.9 µM (inactive) | 92.5 µM (inactive) | 27 µM (inactive) | 61.4 µM (inactive) | > 100 µM (inactive) | 19.5 µM (inactive) | > 100 µM (inactive) | 24 µM (inactive) | 16.3 µM (inactive) | > 100 µM (inactive) | 16.7 µM (inactive) | 42.4 µM (inactive) |  |  |  |  | 
CCN(CC)CCNC(=O)c1nn(C)c(=S)[nH]c1=S | > 100 µM (inactive) | > 100 µM (inactive) | > 100 µM (inactive) | > 100 µM (inactive) | > 100 µM (inactive) | > 100 µM (inactive) | > 100 µM (inactive) | > 100 µM (inactive) | > 100 µM (inactive) | > 100 µM (inactive) | > 100 µM (inactive) | > 100 µM (inactive) | > 100 µM (inactive) | > 100 µM (inactive) | > 100 µM (inactive) |  |  |  |  | 
CC[n+]1c(/C=C/c2ccc(N(CCCl)CCCl)cc2)ccc2cc(I)ccc21 | 1.31 µM (inactive) | 1.51 µM (inactive) | 0.507 µM (active) | 0.335 µM (active) | 0.394 µM (active) | 0.839 µM (active) | 1.28 µM (inactive) | 1.24 µM (inactive) | 0.319 µM (active) | 1.31 µM (inactive) | 0.601 µM (active) | 5.93 µM (inactive) | 1.24 µM (inactive) | 0.766 µM (active) | 1.23 µM (inactive) |  |  |  |  | 
CCOP(=O)(Nc1ccc(-c2ccc(N)cc2)cc1)OCC | > 100 µM (inactive) | 89.5 µM (inactive) | > 100 µM (inactive) | > 100 µM (inactive) | > 100 µM (inactive) | 35.2 µM (inactive) |  | > 100 µM (inactive) |  | > 100 µM (inactive) | > 100 µM (inactive) | > 100 µM (inactive) |  |  | > 100 µM (inactive) | 43.6 µM (inactive) | > 100 µM (inactive) | > 100 µM (inactive) | > 100 µM (inactive) | 
O=C1C2=C(C(c3ccccc3)=C1c1ccccc1)c1ccccc1C1(c3ccccc3)C2=C(O)C(c2ccccc2)=C1c1ccccc1 (centres undefined) | > 100 µM (inactive) | > 100 µM (inactive) | > 100 µM (inactive) |  | > 100 µM (inactive) | > 100 µM (inactive) | > 100 µM (inactive) | > 100 µM (inactive) |  | > 100 µM (inactive) | > 100 µM (inactive) | > 100 µM (inactive) | > 100 µM (inactive) | > 100 µM (inactive) | > 100 µM (inactive) |  |  |  |  | 
CCN(CC)C(=O)CCCCCCCCC1CO1 (centres undefined) | > 100 µM (inactive) | > 100 µM (inactive) | > 100 µM (inactive) | > 100 µM (inactive) | > 100 µM (inactive) | > 100 µM (inactive) | > 100 µM (inactive) |  | > 100 µM (inactive) | > 100 µM (inactive) | > 100 µM (inactive) | > 100 µM (inactive) | > 100 µM (inactive) | 63.4 µM (inactive) | > 100 µM (inactive) | > 100 µM (inactive) |  | > 100 µM (inactive) | > 100 µM (inactive) | 
COC(=O)C1=C(C(=O)OC)C23CC4CCC2(C(=O)C1O3)C4(C)C (centres undefined) | > 100 µM (inactive) |  | 73.1 µM (inactive) | 56.2 µM (inactive) | 53.8 µM (inactive) | 58.5 µM (inactive) | > 100 µM (inactive) | > 100 µM (inactive) | 22.1 µM (inactive) | > 100 µM (inactive) | 34.1 µM (inactive) | > 100 µM (inactive) | > 100 µM (inactive) | 84.5 µM (inactive) | > 100 µM (inactive) |  |  |  |  | 
CCSC1=C(C)N(/C=N/C(C)(C)C)CC1 | > 100 µM (inactive) | > 100 µM (inactive) | > 100 µM (inactive) | > 100 µM (inactive) | > 100 µM (inactive) | > 100 µM (inactive) | > 100 µM (inactive) | > 100 µM (inactive) | > 100 µM (inactive) | > 100 µM (inactive) |  | > 100 µM (inactive) | > 100 µM (inactive) | 89.1 µM (inactive) | > 100 µM (inactive) |  |  |  |  | 
O=C(/C=C\c1cccc2ccccc12)c1cccc2ccccc12 | > 10 µM (inactive) | 20.7 µM (inactive) | 9.04 µM (inactive) | 4.92 µM (inactive) | 5.37 µM (inactive) | 5 µM (inactive) | 15.5 µM (inactive) | 13.1 µM (inactive) | 3.3 µM (inactive) | 8.65 µM (inactive) | 6.95 µM (inactive) | 14.3 µM (inactive) | 9.16 µM (inactive) | 5.61 µM (inactive) | 5.93 µM (inactive) |  |  |  |  | 
O=C1NC2=NN=C(c3ccc(Br)cc3)CN2NC12c1ccccc1-c1ccccc12 | > 100 µM (inactive) | > 100 µM (inactive) | > 100 µM (inactive) | > 100 µM (inactive) | > 100 µM (inactive) | > 100 µM (inactive) | > 100 µM (inactive) | > 100 µM (inactive) | 3.05 µM (inactive) | > 100 µM (inactive) |  | > 100 µM (inactive) | > 100 µM (inactive) | > 100 µM (inactive) | > 100 µM (inactive) | 37 µM (inactive) | > 100 µM (inactive) | > 100 µM (inactive) | > 100 µM (inactive) | 
CN(C)c1nc(Oc2nc(N(C)C)nc(N(C)C)n2)nc(N(C)C)n1 | > 100 µM (inactive) |  | > 100 µM (inactive) | 59.2 µM (inactive) | 35.9 µM (inactive) | > 100 µM (inactive) | > 100 µM (inactive) | 88.7 µM (inactive) | > 100 µM (inactive) | > 100 µM (inactive) | 63.5 µM (inactive) | > 100 µM (inactive) | > 100 µM (inactive) | > 100 µM (inactive) | 72.6 µM (inactive) |  |  |  |  | 
COc1cc(=O)n2c3ccccc3n(C)c2c1C#N | > 100 µM (inactive) | > 100 µM (inactive) | > 100 µM (inactive) | > 100 µM (inactive) | > 100 µM (inactive) | > 100 µM (inactive) | > 100 µM (inactive) | > 100 µM (inactive) | > 100 µM (inactive) | > 100 µM (inactive) | > 100 µM (inactive) | > 100 µM (inactive) | > 100 µM (inactive) |  | > 100 µM (inactive) | > 100 µM (inactive) | > 100 µM (inactive) | > 100 µM (inactive) | > 100 µM (inactive) | 
CS(=O)(=O)Sc1ccc(Cl)cc1 | 23.5 µM (inactive) | 2.83 µM (inactive) |  | 10.2 µM (inactive) | 3.21 µM (inactive) | 7.89 µM (inactive) | 3.69 µM (inactive) | 11.2 µM (inactive) | 2.54 µM (inactive) | 10.9 µM (inactive) | 10.9 µM (inactive) | 3.29 µM (inactive) | 7.48 µM (inactive) | 3.36 µM (inactive) | 13.8 µM (inactive) |  |  |  |  | 
O=C(/C=C/c1ccccc1)NC1C=Nc2ccc(Cl)cc2NC1=O (centres undefined) | 25.1 µM (inactive) | 47.9 µM (inactive) | 26.2 µM (inactive) | 9.42 µM (inactive) | 15.6 µM (inactive) | 16.2 µM (inactive) | 24.8 µM (inactive) | 21.2 µM (inactive) | 3.52 µM (inactive) | 20.9 µM (inactive) |  | 11.8 µM (inactive) | 30.8 µM (inactive) | 18.8 µM (inactive) | 27.5 µM (inactive) |  |  |  |  | 
O=S1(=O)c2ccccc2Oc2ccc(C(/C=N/O)=N/O)cc21 | 39.6 µM (inactive) | 65.5 µM (inactive) | 71.3 µM (inactive) | 30.1 µM (inactive) | 45.3 µM (inactive) | 15.5 µM (inactive) | 61.9 µM (inactive) |  | 25.8 µM (inactive) | 27.9 µM (inactive) | 19.1 µM (inactive) | 24 µM (inactive) | 57.4 µM (inactive) | 19.8 µM (inactive) |  |  |  | 32.5 µM (inactive) | 45.5 µM (inactive) | 9.08 µM (inactive)
CCCc1c(C(=O)OCC)[nH]c(-c2ccc(-c3[nH]c(C(=O)OCC)c(CCC)c3C(=O)OCC)s2)c1C(=O)OCC | 27.1 µM (inactive) |  | 32.1 µM (inactive) | 79.4 µM (inactive) | 11.8 µM (inactive) | 5.38 µM (inactive) | > 100 µM (inactive) | 20.6 µM (inactive) | > 100 µM (inactive) | 37 µM (inactive) | 87.7 µM (inactive) | 8.97 µM (inactive) | 72.1 µM (inactive) | 18.1 µM (inactive) | 28.2 µM (inactive) |  |  |  |  | 
O=C1Oc2cc3c(c4cccc1c24)OCN(c1ccc(Cl)cc1)C3 | > 100 µM (inactive) | 4.32 µM (inactive) | 4.79 µM (inactive) | 0.923 µM (active) | > 63.7 µM (inactive) | > 52.7 µM (inactive) | 13.6 µM (inactive) | 27.4 µM (inactive) | 9.23 µM (inactive) | 2.31 µM (inactive) | 7.14 µM (inactive) | 3.03 µM (inactive) | > 100 µM (inactive) | 0.176 µM (active) | 18.8 µM (inactive) |  |  |  |  | 
